# From patent US6368631B1, “Fine grain carriers and medicinal composition prepared with the use of the same” (Daiichi Pharmaceutical Co., Ltd., priority 1996, dated 2002)
# Legend:
# [1] = system: ionized calcium concentration in blood; experiment: In vivo evaluation of nanoparticle-sCT preparations: change of blood ionized calcium concentration after peroral administration; set-up: species or system SD male rats; settings: rats fasted 24 h, 0.5 ml preparation, single administration
# Description: To SD male rats (7 weeks old, about 200 g) fasted for 24 hours were administered perorally the nanoparticle preparation (0.5 ml) prepared in Example 3 or the control preparation (0.5 ml) (n=5). After administration, blood was collected from the tail vein of each rat in an amount of about 60 μl at 40 minutes, 80 minutes, 2, 3, 4, 6, and 8 hours following the administration.
# Using a 634 Ca^++/pH analyzer (Ciba-Coning), the concentration of ionized calcium in the collected blood was measured. The difference between the ionized calcium concentration at time 0 and that at each of the aforementioned times was calculated and plotted. From the plots, presence or absence of the effect of absorption enhancement obtained through formation of nanoparticles was determined.
# In this connection, sCT is known to have the pharmacological effect of reducing the blood ionized calcium concentration.
# By use of the nanoparticle preparation or the control preparation obtained in Example 7, the procedure of Example 4 was repeated to thereby determine the presence or absence of the effect of absorption enhancement obtained by the formation of nanoparticles.
# By use of the nanoparticle preparation or the control preparation obtained in Example 9, the procedure of Example 4 was repeated to thereby determine the presence or absence of the effect of absorption enhancement obtained by the formation of nanoparticles. […]
# [2] = In vivo evaluation of the complex of nanoparticles and PSP: plasma PSP concentration and pharmacokinetic parameters after duodenal administration; settings: male, SD, rats, 9.4 mg in terms of PSP per rat, n=6, mean ± S.D.
# Description: SD male rats (7 weeks old, about 200 g) were fasted for 24 hours. Under etherization, laparotomy was performed. By use of an injection needle, which was inserted through the pyrolus, the nanoparticle preparation (0.5 ml) prepared in Example 1 or the control preparation (0.5 ml) was administered duodenumally to the rats (dose: 9.4 mg in terms of PSP per rat; n=6). The cut was closed immediately after administration. Blood was collected from the carotid artery at 0.5, 1, 2, 4, 8, 12, and 24 hours following the administration. In accordance with the method of […] (Journal of Pharmaceutical Science, 79, 334, 1990), the plasma PSP concentration of each rat was measured. The plasma (0.3 ml) that had been centrifugally separated from the collected blood, purified water (0.3 ml), and aqueous 0.1 N NaOH solution (0.9 ml) were mixed. The mixture was filtered through use of an ultrafilter membrane (molecular weight of fractionation=10,000), to thereby remove proteins, etc. The filtrate was used as a sample solution. Separately, standard solutions were prepared through use of aqueous PSP-Na solutions (starting from 9.4 mg/ml in terms of PSP, a series of 2-fold dilutions) (0.3 ml each), a blank plasma from each rat (0.3 ml), and aqueous 0.1 N NaOH solution (0.9 ml) were mixed and ultrafiltered. For each of the sample solutions and standard solutions, absorption was determined through use of a spectrometer at the wavelength of 560 nm. Based on the results obtained from the standard solutions, a calibration curve was obtained, and the plasma PSP concentrations were measured. Based on the obtained time-plasma PSP concentration profile, pharmacokinetic parameters were calculated.
AUC(0-inf) [2],Cmax [2],Tmax [2],MRT last ([2]; read-out: MRT0-24 h),Molecule,effect of reducing the blood ionized calcium concentration [1]
,,,,salmon calcitonin [aqueous sCT solution],slightly decreased
9970 ± 2200 ng·h/mL,2000 ± 290 ng/mL,0.92 ± 0.2 h,4.57 ± 0.34 h,"O=S1(=O)OC(c2ccc(O)cc2)(c2ccc(O)cc2)c2ccccc21 [Aq. PSP-Na sol. (control prep.), phenolsulfonphthalein]",
